# Columns and labels:
# [1] = target: Prostaglandin G/H synthase 1 (Homo sapiens, UniProt P23219); format: cell-based, COS
# Description: Inhibition of human cyclooxygenase-1 expressed in COS cells
# [2] = target: T1, Prostaglandin G/H synthase 2 (Homo sapiens, UniProt P35354); format: cell-based, COS
# T1 sequence (P35354 whole entry): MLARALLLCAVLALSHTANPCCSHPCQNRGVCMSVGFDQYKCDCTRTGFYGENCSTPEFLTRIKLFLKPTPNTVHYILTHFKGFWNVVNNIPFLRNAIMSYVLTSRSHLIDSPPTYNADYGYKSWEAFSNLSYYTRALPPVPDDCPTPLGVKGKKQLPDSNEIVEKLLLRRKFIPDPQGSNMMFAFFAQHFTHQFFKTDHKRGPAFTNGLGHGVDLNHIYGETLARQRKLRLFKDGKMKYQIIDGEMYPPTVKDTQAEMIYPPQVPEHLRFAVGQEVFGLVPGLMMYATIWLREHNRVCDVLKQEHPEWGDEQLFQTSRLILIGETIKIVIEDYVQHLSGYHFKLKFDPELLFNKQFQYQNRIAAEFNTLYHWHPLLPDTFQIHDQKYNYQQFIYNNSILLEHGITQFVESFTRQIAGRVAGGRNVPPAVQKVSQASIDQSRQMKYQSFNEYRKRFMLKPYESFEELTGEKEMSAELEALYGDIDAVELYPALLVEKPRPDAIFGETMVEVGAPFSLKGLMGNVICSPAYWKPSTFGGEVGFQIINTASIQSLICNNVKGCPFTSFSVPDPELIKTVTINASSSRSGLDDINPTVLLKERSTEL
# Description: Inhibition of human cyclooxygenase-2 expressed in COS cells
# [3] = target: T2, Prostaglandin G/H synthase 2 (Rattus norvegicus) (UniProt P35355); assay: Percent reversal of FCA-induced arthritis in rats at 10 mg/kg; format: functional, organism-based; parameters: dose 10 mg/kg
# T2 sequence (whole entry): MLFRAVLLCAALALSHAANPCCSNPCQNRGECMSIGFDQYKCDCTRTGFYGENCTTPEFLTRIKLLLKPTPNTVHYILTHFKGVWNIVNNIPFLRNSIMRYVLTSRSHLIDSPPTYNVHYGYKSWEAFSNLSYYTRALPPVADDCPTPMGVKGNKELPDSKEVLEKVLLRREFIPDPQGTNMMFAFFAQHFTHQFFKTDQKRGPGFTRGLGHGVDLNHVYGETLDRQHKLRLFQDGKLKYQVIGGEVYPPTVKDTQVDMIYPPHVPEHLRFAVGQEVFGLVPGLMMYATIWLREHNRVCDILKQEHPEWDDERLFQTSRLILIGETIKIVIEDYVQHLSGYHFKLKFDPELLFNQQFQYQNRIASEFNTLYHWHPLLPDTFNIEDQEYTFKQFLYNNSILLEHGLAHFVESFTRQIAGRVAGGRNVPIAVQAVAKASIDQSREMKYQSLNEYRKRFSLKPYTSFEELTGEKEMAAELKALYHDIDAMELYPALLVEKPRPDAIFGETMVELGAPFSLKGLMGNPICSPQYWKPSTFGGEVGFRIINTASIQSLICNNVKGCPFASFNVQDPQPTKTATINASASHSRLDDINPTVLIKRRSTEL
# [4] = Distribution after iv administration of 2 mg/kg to rat; format: ADME, organism-based; parameters: dose 2 mg/kg, route intravenous; conditions: in vivo, read-out: Distribution
# [5] = Clearance after iv administration of 2 mg/kg to rat; format: ADME, organism-based; parameters: dose 2 mg/kg, route intravenous; conditions: in vivo
# [6] = Half life after iv administration of 2 mg/kg to rat; format: ADME, organism-based; parameters: dose 2 mg/kg, route intravenous; conditions: in vivo
# [7] = Oral bioavailability after oral administration of 5 mg/kg to rat; format: ADME, organism-based; conditions: in vivo, read-out: Bioavailabiility
# Sequence of Prostaglandin G/H synthase 1 (P23219 whole entry): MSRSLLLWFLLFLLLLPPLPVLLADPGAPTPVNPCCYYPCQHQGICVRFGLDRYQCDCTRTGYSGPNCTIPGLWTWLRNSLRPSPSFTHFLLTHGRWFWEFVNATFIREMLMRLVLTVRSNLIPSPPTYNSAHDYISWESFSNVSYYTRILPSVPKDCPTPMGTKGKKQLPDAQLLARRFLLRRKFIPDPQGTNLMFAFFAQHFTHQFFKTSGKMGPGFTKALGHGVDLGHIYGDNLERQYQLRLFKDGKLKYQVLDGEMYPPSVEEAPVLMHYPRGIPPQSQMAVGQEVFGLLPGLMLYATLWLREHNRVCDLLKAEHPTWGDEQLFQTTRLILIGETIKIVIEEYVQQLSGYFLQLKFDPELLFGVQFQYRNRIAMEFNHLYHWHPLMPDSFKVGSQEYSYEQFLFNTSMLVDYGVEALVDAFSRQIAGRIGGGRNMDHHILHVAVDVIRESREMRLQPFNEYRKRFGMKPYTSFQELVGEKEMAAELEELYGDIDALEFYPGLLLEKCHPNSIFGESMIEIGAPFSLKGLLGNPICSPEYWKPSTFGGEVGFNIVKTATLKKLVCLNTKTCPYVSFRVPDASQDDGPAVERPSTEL
Structure (SMILES),IC50 [1] [nM],IC50 [2] [nM],Reversal activity [3] [%],Vd [4] [L/kg],clearance [5] [mL/min/kg],half-life [6] [h],bioavailability [7] [%]
CS(=O)(=O)c1ccc(-c2c(-c3cccc(F)c3)nn3ncccc23)cc1,58300,34,78,,,,
NS(=O)(=O)c1ccc(-c2c(-c3ccc(F)cc3)nn3ncccc23)cc1,24100,< 10,0,,,,
COc1ccc2c(-c3ccc(S(N)(=O)=O)cc3)c(-c3ccc(F)cc3)nn2n1,2610,26,,,,,
CCOc1ccc(-c2nn3nc(S(C)(=O)=O)ccc3c2-c2ccc(S(N)(=O)=O)cc2)cc1,> 100000,264,0,,,,
CS(=O)(=O)c1ccc(-c2c(-c3ccccc3)nn3ncccc23)cc1,> 100000,2,,,,,
NS(=O)(=O)c1ccc(-c2c(-c3ccc(OC(F)(F)F)cc3)nn3ncccc23)cc1,> 100000,388,92,,,,
Cc1ccc(-c2ncc(Cl)cc2-c2ccc(S(C)(=O)=O)cc2)cn1 [ETORICOXIB],> 100000,,,,,,
CC(C)Oc1ccc2c(-c3ccc(S(C)(=O)=O)cc3)c(-c3ccc(F)cc3)nn2n1,> 100000,57,,,,,

# The next lines start with the values.
IC50 [1] [nM],IC50 [2] [nM],Reversal activity [3] [%],Vd [4] [L/kg],clearance [5] [mL/min/kg],half-life [6] [h],bioavailability [7] [%],Structure (SMILES)
8630,13,,,,,,CCOc1ccc(-c2nn3nc(SC)ccc3c2-c2ccc(S(N)(=O)=O)cc2)cc1
> 100000,50,15,,,,,COc1ccc2c(-c3ccc(S(C)(=O)=O)cc3)c(-c3ccc(C)cc3)nn2n1
> 100000,24,,,,,,Cc1ccc2c(-c3ccc(S(C)(=O)=O)cc3)c(-c3ccc(F)cc3)nn2n1
> 100000,43,11,,,,,CCOc1ccc2c(-c3ccc(S(C)(=O)=O)cc3)c(-c3ccc(F)cc3)nn2n1
> 19100,17,23,,,,,Cc1ccc(-c2nn3ncccc3c2-c2ccc(S(C)(=O)=O)cc2)cc1
> 100000,48,40,,,,,CCc1ccc2c(-c3ccc(S(C)(=O)=O)cc3)c(-c3ccc(F)cc3)nn2n1
> 35100,51,10,,,,,COc1ccc2c(-c3ccc(S(C)(=O)=O)cc3)c(-c3ccc(F)cc3)nn2n1
> 100000,39,,,,,,CS(=O)(=O)c1ccc(-c2c(-c3ccc(F)cc3)nn3ncccc23)cc1
> 84200,,,3,9,4.1,80,CCOc1ccc(-c2nn3ncccc3c2-c2ccc(S(C)(=O)=O)cc2)cc1 [GW-406381]
43900,< 31,1,,,,,Cc1ccc2c(-c3ccc(S(C)(=O)=O)cc3)c(-c3ccccc3)nn2n1
